Measured values from PubChem BioAssay AID2060511 (Molecular Pharmacology Branch, DTP, NCI, 2025).
pIC50: −log10 of the molar value.

System: 422866-222-R5-J1-PDC spheroids with HUVEC/MSC, viability
Test: Anticancer human tumor 422866-222-R5-J1-PDC patient-derived pancreatic adenocarcinoma cell line growth inhibition [GQUAD]
Settings: for pIC50: curve of first compound; for viability, T/C: stronger effect = lower value
Source text: DNA G-quadruplex Stabilizer Agents in Combinations in Complex Spheroids
A high-throughput screen of multi-cell type tumor spheroids was designed to identify active combinations of DNA G-quadruplex stabilizer agents and targeted small molecules. Complex spheroids include a stromal component modeled by human endothelial cells (HUVEC) and fibroblasts modeled by human mesenchymal stem cells (MSCs). The concentration ranges selected for each drug and investigational agent were based upon clinically achievable concentrations if the clinical Cmax of the agent was known.
Compounds. The drugs and investigational agents: pidnarulex (CX-5461; NSC782164), APTO-253 (NSC789042), BRACO-19 (NSC847499), peposertib (NSC802822), ceralasertib (NSC780249), elimusertib (NSC800525), camonsertib (NSC841442), AZD-1390 (NSC803789), olaparib (NSC753686), talazoparib (NSC767125), ART-558 (NSC835418), sotorasib (NSC818433), MRTX-1133 (NSC836407), SN-38 (NSC673596), topotecan (NSC609699), etoposide (NSC141540), doxorubicin (NSC123127), gemcitabine (NSC613327), 5-fluorouracil (NSC19893), paclitaxel (NSC125973), vemurafenib (NSC761431), panobinostat (NSC761190), R-306465 (JNJ-16241199; NSC773264), adavosertib (NSC754352), TP-3654 (NSC805149), carboplatin (NSC241240), KSQ-4279 (NSC840948), and staurosporine (NSC755774) were obtained from the National Cancer Institute (NCI) Developmental Therapeutics Program Chemical Repository (34). The FDA-approved anticancer drug set is available from the NCI Developmental Therapeutics Program. […] The stock solutions were prepared in dimethyl sulfoxide (DMSO, Sigma-Aldrich, St. Louis, MO, cat. D2650) at 800-fold the tested concentration and stored at -70 degrees C prior to their use. All drugs and investigational agents were tested over a range starting from a high concentration at or near the clinical Cmax and decreasing in half-log increments. If the clinical Cmax for an agent had not been determined, the highest concentration tested was 10 microM.
2.3 Cell Culture. All cells were maintained in an incubator at 37 degrees C and 5% CO2 with 95% humidity. The PDC lines were cultured according to standard operating procedures established by the NCI PDMR. All PDCs were thawed and cultured in Matrigel-coated flasks prepared with a working solution of 1X Ham's F-12 nutrient mix, without supplementation (Invitrogen, cat. 11765054), 100 U/mL penicillin-streptomycin (Invitrogen, cat. 15140122), and 2.5% Matrigel (Corning Inc., cat. 354248) for the first three passages. The 857933-349-R-J2-PDC line was cultured in 6C/Colon 1B media, which includes advanced DMEM/F-12 (Thermo Fisher Scientific, cat. 12634028), 10 mM HEPES (Thermo Fisher Scientific, cat. 15630080), 1X GlutaMAX supplement (Thermo Fisher Scientific, cat. 35050061), 0.1 mg/mL primocin (InvivoGen, cat. ant-pm-2), 10% defined fetal bovine serum, heat inactivated (HyClone Laboratories Inc., cat. SH30070.03HI), 50% L-WRN conditioned media (ATCC, cat. CRL-3276), 1.25 mM N-Acetyl-L-cysteine (Sigma-Aldrich, cat. A9165), 10 mM nicotinamide (Sigma-Aldrich, cat. N0636), 1X B-27 supplement (Thermo Fisher Scientific, cat. 17504044), 1X N-2 supplement (Thermo Fisher Scientific, cat. 17502048), 10 microM Y-27632 dihydrochloride (Tocris Bioscience, cat. 1254), and 50 ng/mL human EGF recombinant protein (Thermo Fisher Scientific, cat. PHG0311). The 485176-168-R4-J1-PDC line was cultured in Panc media, which includes all 6C/Colon 1B media components plus 100 ng/mL human FGF-10 (Thermo Fisher Scientific, cat. 100-26), 500 nM SB-431542 (Selleckchem, cat. S1067), and gastrin (Tocris, cat. 3006).
[…]

[1] = second compound 0.0316 µM, first compound 0.0316 µM
[2] = second compound 0.0316 µM, first compound 0.316 µM
[3] = second compound 0.1 µM, first compound 0.0316 µM
[4] = second compound 0.1 µM, first compound 0.316 µM
[5] = second compound 0.316 µM, first compound 0.0316 µM
[6] = second compound 0.316 µM, first compound 0.316 µM
[7] = second compound 1 µM, first compound 0.0316 µM
[8] = second compound 1 µM, first compound 0.316 µM
[9] = second compound 3.16 µM, first compound 0.0316 µM
[10] = second compound 3.16 µM, first compound 0.316 µM
[11] = second compound 10 µM, first compound 0.0316 µM
[12] = second compound 10 µM, first compound 0.316 µM
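Also: spheroids exposed to compounds for seven days before reading.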
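For viability, T/C in this document: percent viability relative to DMSO vehicle control taken as 100%.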

Compound: CC[C@@]1(O)C(=O)OCc2c1cc1n(c2=O)Cc2cc3c(CN(C)C)c(O)ccc3nc2-1 + Cc1[nH]c2ccc(F)cc2c1-c1nc2c3cccnc3c3ncccc3c2[nH]1
- pIC50 (second compound 0.0316 µM): 7.19
- pIC50 (second compound 0.1 µM): 7.06
- pIC50 (second compound 0.316 µM): 6.89
- pIC50 (second compound 1 µM): 6.99
- pIC50 (second compound 3.16 µM): 7.10
- pIC50 (second compound 10 µM): 7.28
- viability, T/C (second compound 0.0316 µM, first compound 0.000999 µM): 92.9%
- viability, T/C (second compound 0.0316 µM, first compound 0.00316 µM): 95.8%
- viability, T/C (second compound 0.0316 µM, first compound 0.00999 µM): 92.8%
- viability, T/C [1]: 56.9%
- viability, T/C (second compound 0.0316 µM, first compound 0.0999 µM): 46.2%
- viability, T/C [2]: 45.2%
- viability, T/C (second compound 0.1 µM, first compound 0.000999 µM): 104%
- viability, T/C (second compound 0.1 µM, first compound 0.00316 µM): 90.8%
- viability, T/C (second compound 0.1 µM, first compound 0.00999 µM): 86.2%
- viability, T/C [3]: 61.7%
- viability, T/C (second compound 0.1 µM, first compound 0.0999 µM): 48.8%
- viability, T/C [4]: 36.8%
- viability, T/C (second compound 0.316 µM, first compound 0.000999 µM): 99.8%
- viability, T/C (second compound 0.316 µM, first compound 0.00316 µM): 88.4%
- viability, T/C (second compound 0.316 µM, first compound 0.00999 µM): 85.5%
- viability, T/C [5]: 71.7%
- viability, T/C (second compound 0.316 µM, first compound 0.0999 µM): 49.2%
- viability, T/C [6]: 43.4%
- viability, T/C (second compound 1 µM, first compound 0.000999 µM): 92.7%
- viability, T/C (second compound 1 µM, first compound 0.00316 µM): 98.5%
- viability, T/C (second compound 1 µM, first compound 0.00999 µM): 76.2%
- viability, T/C [7]: 74.5%
- viability, T/C (second compound 1 µM, first compound 0.0999 µM): 46.4%
- viability, T/C [8]: 39.8%
- viability, T/C (second compound 3.16 µM, first compound 0.000999 µM): 83.7%
- viability, T/C (second compound 3.16 µM, first compound 0.00316 µM): 97.3%
- viability, T/C (second compound 3.16 µM, first compound 0.00999 µM): 78.4%
- viability, T/C [9]: 69.2%
- viability, T/C (second compound 3.16 µM, first compound 0.0999 µM): 44.4%
- viability, T/C [10]: 38%
- viability, T/C (second compound 10 µM, first compound 0.000999 µM): 69.7%
- viability, T/C (second compound 10 µM, first compound 0.00316 µM): 79.2%
- viability, T/C (second compound 10 µM, first compound 0.00999 µM): 73.5%
- viability, T/C [11]: 56.3%
- viability, T/C (second compound 10 µM, first compound 0.0999 µM): 42.8%
- viability, T/C [12]: 40.8%

Compound: O=c1[nH]cc(F)c(=O)[nH]1 + Cc1[nH]c2ccc(F)cc2c1-c1nc2c3cccnc3c3ncccc3c2[nH]1
- pIC50 (second compound 0.0316 µM): < 5.00
- pIC50 (second compound 0.1 µM): < 5.00
- pIC50 (second compound 0.316 µM): < 5.00
- pIC50 (second compound 1 µM): < 5.00
- pIC50 (second compound 3.16 µM): < 5.00
- pIC50 (second compound 10 µM): < 5.00
- viability, T/C [1]: 95%
- viability, T/C (second compound 0.0316 µM, first compound 0.1 µM): 101%
- viability, T/C [2]: 101%
- viability, T/C (second compound 0.0316 µM, first compound 1 µM): 93.8%
- viability, T/C (second compound 0.0316 µM, first compound 3.16 µM): 84.5%
- viability, T/C (second compound 0.0316 µM, first compound 10 µM): 69.1%
- viability, T/C [3]: 97.9%
- viability, T/C (second compound 0.1 µM, first compound 0.1 µM): 111%
- viability, T/C [4]: 105%
- viability, T/C (second compound 0.1 µM, first compound 1 µM): 84.2%
- viability, T/C (second compound 0.1 µM, first compound 3.16 µM): 79.9%
- viability, T/C (second compound 0.1 µM, first compound 10 µM): 60.5%
- viability, T/C [5]: 103%
- viability, T/C (second compound 0.316 µM, first compound 0.1 µM): 95.8%
- viability, T/C [6]: 114%
- viability, T/C (second compound 0.316 µM, first compound 1 µM): 73.2%
- viability, T/C (second compound 0.316 µM, first compound 3.16 µM): 82.6%
- viability, T/C (second compound 0.316 µM, first compound 10 µM): 74%
- viability, T/C [7]: 101%
- viability, T/C (second compound 1 µM, first compound 0.1 µM): 105%
- viability, T/C [8]: 101%
- viability, T/C (second compound 1 µM, first compound 1 µM): 101%
- viability, T/C (second compound 1 µM, first compound 3.16 µM): 89.6%
- viability, T/C (second compound 1 µM, first compound 10 µM): 72.9%
- viability, T/C [9]: 85.7%
- viability, T/C (second compound 3.16 µM, first compound 0.1 µM): 99.3%
- viability, T/C [10]: 95.4%
- viability, T/C (second compound 3.16 µM, first compound 1 µM): 81.4%
- viability, T/C (second compound 3.16 µM, first compound 3.16 µM): 86.9%
- viability, T/C (second compound 3.16 µM, first compound 10 µM): 64%
- viability, T/C [11]: 74.9%
- viability, T/C (second compound 10 µM, first compound 0.1 µM): 79.7%
- viability, T/C [12]: 85.3%
- viability, T/C (second compound 10 µM, first compound 1 µM): 72%
- viability, T/C (second compound 10 µM, first compound 3.16 µM): 75.5%
- viability, T/C (second compound 10 µM, first compound 10 µM): 53.3%
